ChEMBL document CHEMBL4507296 (2021)

Legend:
[1] = target: Dual specificity mitogen-activated protein kinase kinase 6 (Homo sapiens) (UniProt P52564); conditions: Compound concentration 1000.0 nM
[2] = target: Receptor tyrosine-protein kinase erbB-4 (Homo sapiens) (UniProt Q15303); conditions: Compound concentration 1000.0 nM
[3] = target: Serine/threonine-protein kinase MRCK alpha (Homo sapiens) (UniProt Q5VT25); conditions: Compound concentration 1000.0 nM
[4] = target: 5-hydroxytryptamine receptor 5A (Homo sapiens) (UniProt P47898); conditions: Compound concentration 10.0 uM
[5] = system: Receptor-type tyrosine-protein kinase FLT3 (Homo sapiens), P36888 [UNDEFINED MUTATION]; conditions: Compound concentration 1000.0 nM
[6] = target: Tyrosine-protein kinase ITK/TSK (Homo sapiens) (UniProt Q08881); conditions: Compound concentration 1000.0 nM
[7] = target: Tyrosine-protein kinase FRK (Homo sapiens) (UniProt P42685); conditions: Compound concentration 1000.0 nM
[8] = target: SRSF protein kinase 3 (Homo sapiens) (UniProt Q9UPE1); conditions: Compound concentration 1000.0 nM
[9] = target: Mitogen-activated protein kinase kinase kinase 15 (Homo sapiens) (UniProt Q6ZN16); conditions: Compound concentration 1000.0 nM
[10] = target: Serine/threonine-protein kinase mTOR (Homo sapiens) (UniProt P42345); conditions: Compound concentration 1000.0 nM
[11] = target: 5-hydroxytryptamine receptor 6 (Homo sapiens) (UniProt P50406); conditions: Compound concentration 10.0 uM
[12] = target: Vascular endothelial growth factor receptor 2 (Homo sapiens) (UniProt P35968); conditions: Compound concentration 1000.0 nM
[13] = target: Ephrin type-B receptor 1 (Homo sapiens) (UniProt P54762); conditions: Compound concentration 1000.0 nM
[14] = target: AP2-associated protein kinase 1 (Homo sapiens) (UniProt Q2M2I8); conditions: Compound concentration 1000.0 nM
[15] = target: Non-receptor tyrosine-protein kinase TYK2 (Homo sapiens) (UniProt P29597); conditions: Compound concentration 1000.0 nM
[16] = target: Megakaryocyte-associated tyrosine-protein kinase (Homo sapiens) (UniProt P42679); conditions: Compound concentration 1000.0 nM
[17] = target: Bone morphogenetic protein receptor type-2 (Homo sapiens) (UniProt Q13873); conditions: Compound concentration 1000.0 nM
[18] = target: BMP-2-inducible protein kinase (Homo sapiens) (UniProt Q9NSY1); conditions: Compound concentration 1000.0 nM
[19] = target: Mitogen-activated protein kinase 6 (Homo sapiens) (UniProt Q16659); conditions: Compound concentration 1000.0 nM
[20] = target: D(1A) dopamine receptor (Homo sapiens) (UniProt P21728); conditions: Compound concentration 10.0 uM
[21] = target: Mu-type opioid receptor (Homo sapiens) (UniProt P35372); assay: m-Opioid (human) CEREP ligand profiling; conditions: Compound concentration 10.0 uM
[22] = target: Atypical kinase COQ8A, mitochondrial (Homo sapiens) (UniProt Q8NI60); conditions: Compound concentration 1000.0 nM
[23] = target: Mitogen-activated protein kinase kinase kinase 7 (Homo sapiens) (UniProt O43318); conditions: Compound concentration 1000.0 nM
[24] = system: Receptor-type tyrosine-protein kinase FLT3 (Homo sapiens), P36888 [R834Q]; conditions: Compound concentration 1000.0 nM
[25] = target: 5-hydroxytryptamine receptor 2A (Homo sapiens) (UniProt P28223); conditions: Compound concentration 10.0 uM
[26] = target: Serine/threonine-protein kinase TBK1 (Homo sapiens) (UniProt Q9UHD2); conditions: Compound concentration 1000.0 nM
[27] = target: Cyclin-dependent kinase 2 (Homo sapiens) (UniProt P24941); conditions: Compound concentration 1000.0 nM
[28] = target: Serine/threonine-protein kinase 32C (Homo sapiens) (UniProt Q86UX6); conditions: Compound concentration 1000.0 nM
[29] = target: Ephrin type-A receptor 1 (Homo sapiens) (UniProt P21709); conditions: Compound concentration 1000.0 nM
[30] = system: Phosphatidylinositol 4,5-bisphosphate 3-kinase catalytic subunit alpha isoform (Homo sapiens), P42336 [E545A]; conditions: Compound concentration 1000.0 nM
[31] = target: Serine/threonine-protein kinase Nek7 (Homo sapiens) (UniProt Q8TDX7); conditions: Compound concentration 1000.0 nM
[32] = target: 5-hydroxytryptamine receptor 3A (Homo sapiens) (UniProt P46098); conditions: Compound concentration 10.0 uM
[33] = target: Serine/threonine-protein kinase BRSK1 (Homo sapiens) (UniProt Q8TDC3); conditions: Compound concentration 1000.0 nM
[34] = target: Muscarinic acetylcholine receptor M3 (Homo sapiens) (UniProt P20309); assay: Muscarinic M3 (human) CEREP ligand profiling; conditions: Compound concentration 10.0 uM
[35] = target: Citron Rho-interacting kinase (Homo sapiens) (UniProt O14578); conditions: Compound concentration 1000.0 nM
[36] = target: Sodium-dependent serotonin transporter (Homo sapiens) (UniProt P31645); conditions: Compound concentration 10.0 uM
[37] = target: Mitogen-activated protein kinase kinase kinase 2 (Homo sapiens) (UniProt Q9Y2U5); conditions: Compound concentration 1000.0 nM
[38] = target: cAMP-dependent protein kinase catalytic subunit PRKX (Homo sapiens) (UniProt P51817); conditions: Compound concentration 1000.0 nM
[39] = target: Inhibitor of nuclear factor kappa-B kinase subunit beta (Homo sapiens) (UniProt O14920); conditions: Compound concentration 1000.0 nM
[40] = target: Cyclin-dependent kinase 2 homolog (Plasmodium falciparum (isolate 3D7)) (UniProt P61075); conditions: Compound concentration 1000.0 nM
[41] = target: Serine/threonine-protein kinase 3 (Homo sapiens) (UniProt Q13188); conditions: Compound concentration 1000.0 nM
[42] = target: 5'-AMP-activated protein kinase catalytic subunit alpha-2 (Homo sapiens) (UniProt P54646); conditions: Compound concentration 1000.0 nM
[43] = target: Phosphatidylinositol 5-phosphate 4-kinase type-2 beta (Homo sapiens) (UniProt P78356); conditions: Compound concentration 1000.0 nM
[44] = target: Transient receptor potential cation channel subfamily M member 6 (Homo sapiens) (UniProt Q9BX84); conditions: Compound concentration 1000.0 nM
[45] = system: Tyrosine-protein kinase ABL1 (Homo sapiens), P00519 [M351T]; conditions: Compound concentration 1000.0 nM

Ephrin type-A receptor 1 (Homo sapiens), sequence (P21709 whole entry, canonical isoform): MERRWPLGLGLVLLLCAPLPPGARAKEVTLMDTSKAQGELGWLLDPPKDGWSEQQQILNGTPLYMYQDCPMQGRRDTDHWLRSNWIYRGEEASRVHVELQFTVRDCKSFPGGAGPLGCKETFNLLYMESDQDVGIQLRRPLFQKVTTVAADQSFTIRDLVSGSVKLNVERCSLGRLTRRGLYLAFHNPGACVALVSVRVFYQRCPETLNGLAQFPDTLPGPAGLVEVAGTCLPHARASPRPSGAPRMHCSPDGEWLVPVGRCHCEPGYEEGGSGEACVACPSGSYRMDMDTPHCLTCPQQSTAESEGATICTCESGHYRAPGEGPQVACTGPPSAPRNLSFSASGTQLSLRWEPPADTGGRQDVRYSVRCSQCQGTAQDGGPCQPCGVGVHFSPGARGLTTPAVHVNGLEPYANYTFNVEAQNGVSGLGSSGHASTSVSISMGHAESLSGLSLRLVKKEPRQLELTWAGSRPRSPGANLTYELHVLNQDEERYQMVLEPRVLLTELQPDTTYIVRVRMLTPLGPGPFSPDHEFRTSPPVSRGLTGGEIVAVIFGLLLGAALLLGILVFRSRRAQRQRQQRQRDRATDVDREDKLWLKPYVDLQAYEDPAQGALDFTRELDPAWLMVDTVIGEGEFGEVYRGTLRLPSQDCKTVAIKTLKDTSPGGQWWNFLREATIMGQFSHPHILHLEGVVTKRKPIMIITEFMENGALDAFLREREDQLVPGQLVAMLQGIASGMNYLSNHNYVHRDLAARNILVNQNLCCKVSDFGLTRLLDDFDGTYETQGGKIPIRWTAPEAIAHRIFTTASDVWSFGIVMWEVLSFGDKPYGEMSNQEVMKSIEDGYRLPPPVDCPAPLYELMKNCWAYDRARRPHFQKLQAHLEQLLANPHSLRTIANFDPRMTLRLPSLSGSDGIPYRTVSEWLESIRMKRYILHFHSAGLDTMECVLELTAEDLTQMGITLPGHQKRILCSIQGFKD
Tyrosine-protein kinase ITK/TSK (Homo sapiens), sequence (Q08881 whole entry): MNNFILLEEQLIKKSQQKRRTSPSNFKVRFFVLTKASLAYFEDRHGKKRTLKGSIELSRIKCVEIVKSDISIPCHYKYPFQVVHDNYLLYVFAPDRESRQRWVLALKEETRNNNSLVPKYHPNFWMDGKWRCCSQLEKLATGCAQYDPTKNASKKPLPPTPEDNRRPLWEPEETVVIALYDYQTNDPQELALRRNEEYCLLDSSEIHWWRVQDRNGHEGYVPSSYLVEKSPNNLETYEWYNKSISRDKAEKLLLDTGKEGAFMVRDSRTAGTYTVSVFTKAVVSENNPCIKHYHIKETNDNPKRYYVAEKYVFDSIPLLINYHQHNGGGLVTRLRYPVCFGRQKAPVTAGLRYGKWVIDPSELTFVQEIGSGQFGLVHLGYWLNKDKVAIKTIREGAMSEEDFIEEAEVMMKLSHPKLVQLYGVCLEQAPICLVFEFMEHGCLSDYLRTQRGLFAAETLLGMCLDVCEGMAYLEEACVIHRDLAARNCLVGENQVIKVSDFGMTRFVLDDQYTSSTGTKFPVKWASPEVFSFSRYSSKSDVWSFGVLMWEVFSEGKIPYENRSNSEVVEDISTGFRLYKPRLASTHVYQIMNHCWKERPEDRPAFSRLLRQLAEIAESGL
Mitogen-activated protein kinase kinase kinase 2 (Homo sapiens), sequence (Q9Y2U5 whole entry): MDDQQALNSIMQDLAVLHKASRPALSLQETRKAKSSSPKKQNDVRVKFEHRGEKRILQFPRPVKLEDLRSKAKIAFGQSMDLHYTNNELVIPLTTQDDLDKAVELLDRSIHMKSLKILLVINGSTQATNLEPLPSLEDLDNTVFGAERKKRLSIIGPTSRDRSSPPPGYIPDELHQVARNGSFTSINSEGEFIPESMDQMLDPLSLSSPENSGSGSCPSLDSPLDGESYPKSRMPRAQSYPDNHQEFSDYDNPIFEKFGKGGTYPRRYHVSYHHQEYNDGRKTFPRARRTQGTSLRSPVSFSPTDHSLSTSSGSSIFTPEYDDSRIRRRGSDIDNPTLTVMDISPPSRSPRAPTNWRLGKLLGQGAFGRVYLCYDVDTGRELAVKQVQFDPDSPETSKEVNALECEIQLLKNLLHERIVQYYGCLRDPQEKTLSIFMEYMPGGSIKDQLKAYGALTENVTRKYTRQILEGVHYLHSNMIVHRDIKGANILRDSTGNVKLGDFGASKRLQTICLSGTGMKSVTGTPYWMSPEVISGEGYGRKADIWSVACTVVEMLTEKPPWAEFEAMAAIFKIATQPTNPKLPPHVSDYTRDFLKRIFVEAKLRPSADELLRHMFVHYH
Bone morphogenetic protein receptor type-2 (Homo sapiens), sequence (Q13873 whole entry): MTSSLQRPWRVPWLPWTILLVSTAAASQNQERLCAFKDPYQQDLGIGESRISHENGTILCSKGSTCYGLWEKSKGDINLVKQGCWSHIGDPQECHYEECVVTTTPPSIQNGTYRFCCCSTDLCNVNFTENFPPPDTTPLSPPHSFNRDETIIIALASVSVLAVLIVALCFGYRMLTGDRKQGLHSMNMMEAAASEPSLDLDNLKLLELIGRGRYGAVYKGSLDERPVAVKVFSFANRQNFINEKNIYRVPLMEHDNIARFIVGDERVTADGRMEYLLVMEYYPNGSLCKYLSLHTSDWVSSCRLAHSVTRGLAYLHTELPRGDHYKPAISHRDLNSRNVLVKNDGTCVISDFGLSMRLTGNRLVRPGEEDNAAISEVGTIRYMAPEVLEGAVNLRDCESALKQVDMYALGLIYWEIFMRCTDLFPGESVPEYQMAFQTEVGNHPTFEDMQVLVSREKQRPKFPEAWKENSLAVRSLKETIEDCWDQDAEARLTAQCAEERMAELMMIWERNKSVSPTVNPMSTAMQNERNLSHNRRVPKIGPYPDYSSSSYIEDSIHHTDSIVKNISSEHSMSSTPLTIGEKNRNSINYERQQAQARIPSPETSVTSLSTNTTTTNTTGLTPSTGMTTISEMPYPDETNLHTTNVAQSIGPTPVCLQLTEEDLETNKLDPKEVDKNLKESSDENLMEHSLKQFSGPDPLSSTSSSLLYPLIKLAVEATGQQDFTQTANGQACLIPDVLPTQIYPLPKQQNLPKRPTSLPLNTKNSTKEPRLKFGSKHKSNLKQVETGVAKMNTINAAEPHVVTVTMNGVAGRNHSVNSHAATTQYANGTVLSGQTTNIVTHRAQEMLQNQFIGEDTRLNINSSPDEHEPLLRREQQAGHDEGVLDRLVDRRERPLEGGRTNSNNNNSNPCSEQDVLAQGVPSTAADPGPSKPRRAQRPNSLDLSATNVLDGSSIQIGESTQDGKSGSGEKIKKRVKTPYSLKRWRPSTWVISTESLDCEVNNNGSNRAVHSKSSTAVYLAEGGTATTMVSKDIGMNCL
Muscarinic acetylcholine receptor M3 (Homo sapiens), sequence (P20309 whole entry, looked up): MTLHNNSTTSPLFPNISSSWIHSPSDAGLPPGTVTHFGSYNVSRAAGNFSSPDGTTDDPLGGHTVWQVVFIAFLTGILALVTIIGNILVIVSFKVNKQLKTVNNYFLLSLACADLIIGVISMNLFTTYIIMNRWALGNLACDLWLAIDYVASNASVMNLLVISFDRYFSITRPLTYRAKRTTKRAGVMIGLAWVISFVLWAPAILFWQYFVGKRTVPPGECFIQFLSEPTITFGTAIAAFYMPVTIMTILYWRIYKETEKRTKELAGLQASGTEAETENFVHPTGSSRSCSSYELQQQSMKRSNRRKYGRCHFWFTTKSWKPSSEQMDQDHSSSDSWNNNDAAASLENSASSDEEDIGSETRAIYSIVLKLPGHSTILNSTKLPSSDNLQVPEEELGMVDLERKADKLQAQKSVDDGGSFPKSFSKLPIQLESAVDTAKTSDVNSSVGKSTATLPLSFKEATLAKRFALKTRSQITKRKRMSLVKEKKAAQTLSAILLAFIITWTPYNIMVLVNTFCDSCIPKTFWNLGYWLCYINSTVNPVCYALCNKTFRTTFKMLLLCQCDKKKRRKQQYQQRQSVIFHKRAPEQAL
BMP-2-inducible protein kinase (Homo sapiens), sequence (Q9NSY1 whole entry, looked up): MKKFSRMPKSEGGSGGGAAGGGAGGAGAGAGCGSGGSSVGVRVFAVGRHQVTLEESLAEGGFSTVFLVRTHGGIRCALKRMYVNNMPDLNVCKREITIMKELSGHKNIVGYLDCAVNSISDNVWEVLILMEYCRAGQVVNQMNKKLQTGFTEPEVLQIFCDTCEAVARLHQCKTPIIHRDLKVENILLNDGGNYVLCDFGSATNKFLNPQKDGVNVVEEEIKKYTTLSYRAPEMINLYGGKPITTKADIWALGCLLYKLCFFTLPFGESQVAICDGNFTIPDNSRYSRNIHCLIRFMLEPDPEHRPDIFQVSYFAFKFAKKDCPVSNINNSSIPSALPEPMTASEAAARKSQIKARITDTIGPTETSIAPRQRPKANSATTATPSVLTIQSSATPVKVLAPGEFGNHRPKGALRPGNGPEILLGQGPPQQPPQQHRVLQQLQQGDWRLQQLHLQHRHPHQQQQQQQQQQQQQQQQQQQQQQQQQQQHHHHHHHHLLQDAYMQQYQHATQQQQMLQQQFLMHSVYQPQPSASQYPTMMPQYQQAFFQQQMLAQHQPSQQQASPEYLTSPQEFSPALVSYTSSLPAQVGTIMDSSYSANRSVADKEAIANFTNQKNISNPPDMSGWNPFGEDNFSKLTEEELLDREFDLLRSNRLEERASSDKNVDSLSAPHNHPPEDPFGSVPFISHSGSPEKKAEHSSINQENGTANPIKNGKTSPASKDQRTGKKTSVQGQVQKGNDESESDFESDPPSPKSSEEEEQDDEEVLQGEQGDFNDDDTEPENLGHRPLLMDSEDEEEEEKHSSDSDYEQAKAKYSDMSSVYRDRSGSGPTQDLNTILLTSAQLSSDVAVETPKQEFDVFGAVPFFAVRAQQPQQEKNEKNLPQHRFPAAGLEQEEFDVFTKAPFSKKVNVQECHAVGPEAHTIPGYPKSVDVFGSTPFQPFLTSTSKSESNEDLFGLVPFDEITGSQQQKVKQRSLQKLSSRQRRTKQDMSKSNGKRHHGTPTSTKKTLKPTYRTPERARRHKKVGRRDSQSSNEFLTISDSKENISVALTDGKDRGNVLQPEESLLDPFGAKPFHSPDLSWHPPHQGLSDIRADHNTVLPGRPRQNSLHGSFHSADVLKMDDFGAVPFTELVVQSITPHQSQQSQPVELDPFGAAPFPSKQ

C[C@H](c1ccc(F)cc1)N(Cc1cccc(C(=O)O)c1)C(=O)c1cnc2ccccc2c1 [PF-05105679]
inactive: residual activity [1] 100% | residual activity [2] 94% | residual activity [3] 100% | inhibition [4] -1.89% | residual activity [5] 100% | residual activity [6] 84% | residual activity [7] 77% | residual activity [8] 92% | residual activity [9] 100% | residual activity [10] 93% | inhibition [11] 3.57% | residual activity [12] 100% | residual activity [13] 83% | residual activity [14] 100% | residual activity [15] 100% | residual activity [16] 79% | residual activity [17] 75% | residual activity [18] 96% | residual activity [19] 100% | inhibition [20] -0.79% | inhibition [21] 25% | residual activity [22] 85% | residual activity [23] 100% | residual activity [24] 100% | inhibition [25] -0.2% | residual activity [26] 91% | residual activity [27] 100% | residual activity [28] 100% | residual activity [29] 100% | residual activity [30] 100% | residual activity [31] 100% | inhibition [32] -1.19% | residual activity [33] 100% | inhibition [34] 21% | residual activity [35] 100% | inhibition [36] 23.4% | residual activity [37] 100% | residual activity [38] 100% | residual activity [39] 100% | residual activity [40] 100% | residual activity [41] 100% | residual activity [42] 100% | residual activity [43] 96% | residual activity [44] 100% | residual activity [45] 94%
